In ChEMBL document CHEMBL1147316, “Turbinaric acid, a cytotoxic secosqualene carboxylic acid from the brown alga Turbinaria ornata” (J Nat Prod, 1989):
Active and inactive are the calls of the source. The calls are words filed in the database; no cut-off is given here.

What was measured:
[1] = tested on: Melanoma tumor cell line; experiment: Cytotoxicity against mouse melanoma cells at 26.6 ug/mL; format: functional, cell-based
[2] = tested on: Cancer cell lines; experiment: Cytotoxicity against human colon cancer cells at 12.5 ug/mL; format: functional, cell-based

Structure (SMILES): CC(C)=CCC/C(C)=C/CC/C(C)=C/CC/C=C(\C)CC/C=C(\C)CCC(=O)O
- Activity [1]: Active
- Activity [2]: Active
